{"source": "paper PMC10648541", "about": "“Design, Synthesis, and Antiproliferative Activity of Selective Histone Deacetylases 6 Inhibitors Containing a Tetrahydropyridopyrimidine Scaffold” (Molecules, 2023)", "key": {"HDAC3": {"target": "T1, HDAC3 (Homo sapiens, UniProt O15379)", "T1 construct": "purchased Reaction Biology Corporation", "T1 sequence (O15379 whole entry)": "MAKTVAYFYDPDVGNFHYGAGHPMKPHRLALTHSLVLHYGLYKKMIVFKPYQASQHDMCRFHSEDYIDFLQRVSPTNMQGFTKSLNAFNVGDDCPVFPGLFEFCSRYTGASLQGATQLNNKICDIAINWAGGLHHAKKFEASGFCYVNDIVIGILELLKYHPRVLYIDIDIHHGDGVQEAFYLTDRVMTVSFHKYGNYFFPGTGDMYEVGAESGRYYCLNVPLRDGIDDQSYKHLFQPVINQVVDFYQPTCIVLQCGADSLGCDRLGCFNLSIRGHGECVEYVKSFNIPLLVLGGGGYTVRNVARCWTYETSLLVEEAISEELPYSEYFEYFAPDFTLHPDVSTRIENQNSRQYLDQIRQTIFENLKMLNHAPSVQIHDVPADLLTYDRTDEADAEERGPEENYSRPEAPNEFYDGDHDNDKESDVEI", "T1 sequence (Q9Y618 395-489 partner limits assumed)": "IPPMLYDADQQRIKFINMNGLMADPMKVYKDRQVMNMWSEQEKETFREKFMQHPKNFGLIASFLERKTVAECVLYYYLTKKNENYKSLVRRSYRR", "assay": "In vitro HDAC enzyme assay (Reaction Biology Corporation), HDAC3", "assay_type": "biochemical", "settings": "Table 2 isozyme screen; duplicate, SD < 15%"}, "MDA-MB-468": {"test_system": "MDA-MB-468", "assay": "NCI-60 antiproliferative screening, MDA-MB-468", "assay_type": "cell-based", "settings": "Homo sapiens, MDA-MB-468 (Breast Cancer), read-out: Inhibition% values at 10 μM concentration", "from_the_text": "(§1) Then, 8f was submitted to NCI for antiproliferative evaluation against 59 different tumor cell lines. The cancer types of the NCI-60 program include leukemia, non-small cell lung cancer (NSCLC), colon cancer, CNS cancer, melanoma, ovary cancer, renal cancer, prostate cancer, and breast cancer."}, "786-0": {"test_system": "786-0", "assay": "NCI-60 antiproliferative screening, 786-0", "assay_type": "cell-based", "settings": "Homo sapiens, 786-0 (Renal Cancer), read-out: Inhibition% values at 10 μM concentration", "from_the_text": "as §1"}, "HOP-62": {"test_system": "HOP-62", "assay": "NCI-60 antiproliferative screening, HOP-62", "assay_type": "cell-based", "settings": "Homo sapiens, HOP-62 (Non-Small Cell Lung Cancer), read-out: Inhibition% values at 10 μM concentration", "from_the_text": "as §1"}, "TK-10": {"test_system": "TK-10", "assay": "NCI-60 antiproliferative screening, TK-10", "assay_type": "cell-based", "settings": "Homo sapiens, TK-10 (Renal Cancer), read-out: Inhibition% values at 10 μM concentration", "from_the_text": "as §1"}, "SK-MEL-28": {"test_system": "SK-MEL-28", "assay": "NCI-60 antiproliferative screening, SK-MEL-28", "assay_type": "cell-based", "settings": "Homo sapiens, SK-MEL-28 (Melanoma), read-out: Inhibition% values at 10 μM concentration", "from_the_text": "as §1"}, "HDAC4": {"target": "T2, HDAC4 (Homo sapiens, UniProt P56524)", "T2 construct": "purchased Reaction Biology Corporation", "assay": "In vitro HDAC enzyme assay (Reaction Biology Corporation), HDAC4", "assay_type": "biochemical", "settings": "Table 2 isozyme screen; duplicate, SD < 15%"}, "NCI/ADR-RES": {"test_system": "NCI/ADR-RES", "assay": "NCI-60 antiproliferative screening, NCI/ADR-RES", "assay_type": "cell-based", "settings": "Homo sapiens, NCI/ADR-RES (Ovarian Cancer), read-out: Inhibition% values at 10 μM concentration", "from_the_text": "as §1"}, "UACC-62": {"test_system": "UACC-62", "assay": "NCI-60 antiproliferative screening, UACC-62", "assay_type": "cell-based", "settings": "Homo sapiens, UACC-62 (Melanoma), read-out: Inhibition% values at 10 μM concentration", "from_the_text": "as §1"}, "T-47D": {"test_system": "T-47D", "assay": "NCI-60 antiproliferative screening, T-47D", "assay_type": "cell-based", "settings": "Homo sapiens, T47D, T-47D (Breast Cancer), read-out: Inhibition% values at 10 μM concentration", "from_the_text": "as §1"}, "SN12C": {"test_system": "SN12C", "assay": "NCI-60 antiproliferative screening, SN12C", "assay_type": "cell-based", "settings": "Homo sapiens, SN12C (Renal Cancer), read-out: Inhibition% values at 10 μM concentration", "from_the_text": "as §1"}, "SNB-19": {"test_system": "SNB-19", "assay": "NCI-60 antiproliferative screening, SNB-19", "assay_type": "cell-based", "settings": "Homo sapiens, SNB-19 (CNS Cancer), read-out: Inhibition% values at 10 μM concentration", "from_the_text": "as §1"}, "RPMI-8226": {"test_system": "RPMI-8226", "assay": "NCI-60 antiproliferative screening, RPMI-8226", "assay_type": "cell-based", "settings": "Homo sapiens, RPMI-8226 (Leukemia), read-out: Inhibition% values at 10 μM concentration", "from_the_text": "as §1"}, "NCI-H226": {"test_system": "NCI-H226", "assay": "NCI-60 antiproliferative screening, NCI-H226", "assay_type": "cell-based", "settings": "Homo sapiens, NCI-H226 (Non-Small Cell Lung Cancer), read-out: Inhibition% values at 10 μM concentration", "from_the_text": "as §1"}, "OVCAR-5": {"test_system": "OVCAR-5", "assay": "NCI-60 antiproliferative screening, OVCAR-5", "assay_type": "cell-based", "settings": "Homo sapiens, OVCAR-5 (Ovarian Cancer), read-out: Inhibition% values at 10 μM concentration", "from_the_text": "as §1"}, "OVCAR-4": {"test_system": "OVCAR-4", "assay": "NCI-60 antiproliferative screening, OVCAR-4", "assay_type": "cell-based", "settings": "Homo sapiens, OVCAR-4 (Ovarian Cancer), read-out: Inhibition% values at 10 μM concentration", "from_the_text": "as §1"}, "HS 578T": {"test_system": "HS 578T", "assay": "NCI-60 antiproliferative screening, HS 578T", "assay_type": "cell-based", "settings": "Homo sapiens, HS 578T (Breast Cancer), read-out: Inhibition% values at 10 μM concentration", "from_the_text": "as §1"}, "LOX IMVI": {"test_system": "LOX IMVI", "assay": "NCI-60 antiproliferative screening, LOX IMVI", "assay_type": "cell-based", "settings": "Homo sapiens, LOX IMVI (Melanoma), read-out: Inhibition% values at 10 μM concentration", "from_the_text": "as §1"}, "HCT-116": {"test_system": "HCT-116", "assay": "NCI-60 antiproliferative screening, HCT-116", "assay_type": "cell-based", "settings": "Homo sapiens, HCT-116 (Colon Cancer), read-out: Inhibition% values at 10 μM concentration", "from_the_text": "as §1"}, "HCT-15": {"test_system": "HCT-15", "assay": "NCI-60 antiproliferative screening, HCT-15", "assay_type": "cell-based", "settings": "Homo sapiens, HCT-15 (Colon Cancer), read-out: Inhibition% values at 10 μM concentration", "from_the_text": "as §1"}, "HL60": {"test_system": "HL60", "assay": "NCI-60 antiproliferative screening, HL60", "assay_type": "cell-based", "settings": "Homo sapiens, HL-60, HL60 (Leukemia), read-out: Inhibition% values at 10 μM concentration", "from_the_text": "as §1"}, "A498": {"test_system": "A498", "assay": "NCI-60 antiproliferative screening, A498", "assay_type": "cell-based", "settings": "Homo sapiens, A498 (Renal Cancer), read-out: Inhibition% values at 10 μM concentration", "from_the_text": "as §1"}, "HDAC8": {"target": "T3, HDAC8 (Homo sapiens, UniProt Q9BY41)", "T3 construct": "purchased Reaction Biology Corporation", "assay": "In vitro HDAC enzyme assay (Reaction Biology Corporation), HDAC8", "assay_type": "biochemical", "settings": "Table 2 isozyme screen; duplicate, SD < 15%"}, "COLO 205": {"test_system": "COLO 205", "assay": "NCI-60 antiproliferative screening, COLO 205", "assay_type": "cell-based", "settings": "Homo sapiens, COLO 205 (Colon Cancer), read-out: Inhibition% values at 10 μM concentration", "from_the_text": "as §1"}, "NCI-H322M": {"test_system": "NCI-H322M", "assay": "NCI-60 antiproliferative screening, NCI-H322M", "assay_type": "cell-based", "settings": "Homo sapiens, NCI-H322M (Non-Small Cell Lung Cancer), read-out: Inhibition% values at 10 μM concentration", "from_the_text": "as §1"}, "K-562": {"test_system": "K-562", "assay": "NCI-60 antiproliferative screening, K-562", "assay_type": "cell-based", "settings": "Homo sapiens, K562, K-562 (Leukemia), read-out: Inhibition% values at 10 μM concentration", "from_the_text": "as §1"}, "MCF7": {"test_system": "MCF7", "assay": "NCI-60 antiproliferative screening, MCF7", "assay_type": "cell-based", "settings": "Homo sapiens, MCF7 (Breast Cancer), read-out: Inhibition% values at 10 μM concentration", "from_the_text": "as §1"}, "MDA-MB-435": {"test_system": "MDA-MB-435", "assay": "NCI-60 antiproliferative screening, MDA-MB-435", "assay_type": "cell-based", "settings": "Homo sapiens, MDA-MB-435 (Melanoma), read-out: Inhibition% values at 10 μM concentration", "from_the_text": "as §1"}, "SK-MEL-2": {"test_system": "SK-MEL-2", "assay": "NCI-60 antiproliferative screening, SK-MEL-2", "assay_type": "cell-based", "settings": "Homo sapiens, SK-MEL-2 (Melanoma), read-out: Inhibition% values at 10 μM concentration", "from_the_text": "as §1"}, "MALME-3M": {"test_system": "MALME-3M", "assay": "NCI-60 antiproliferative screening, MALME-3M", "assay_type": "cell-based", "settings": "Homo sapiens, MALME-3M (Melanoma), read-out: Inhibition% values at 10 μM concentration", "from_the_text": "as §1"}, "SR": {"test_system": "SR", "assay": "NCI-60 antiproliferative screening, SR", "assay_type": "cell-based", "settings": "Homo sapiens, SR (Leukemia), read-out: Inhibition% values at 10 μM concentration", "from_the_text": "as §1"}}}
{"smiles": "COc1cccc(-c2nc3c(c(-c4cccc(OC)c4)n2)CCN(C(=O)CCCCCCC(=O)NO)C3)c1", "note": "[Compound 8f, 8-(2,4-Bis(3-methoxyphenyl)-5,8-dihydropyrido [3,4-d]pyrimidin-7(6H)-yl)-N-hydroxy-8-oxooctanamide]", "values": [{"measurement": "IC50", "setting": "HDAC3", "result": 411, "unit": "nM"}, {"measurement": "inhibition at 10 µM", "setting": "MDA-MB-468", "result": 100, "unit": "%"}, {"measurement": "inhibition at 10 µM", "setting": "786-0", "result": 89.1, "unit": "%"}, {"measurement": "inhibition at 10 µM", "setting": "HOP-62", "result": 99.1, "unit": "%"}, {"measurement": "inhibition at 10 µM", "setting": "TK-10", "result": 100, "unit": "%"}, {"measurement": "inhibition at 10 µM", "setting": "SK-MEL-28", "result": 100, "unit": "%"}, {"measurement": "HDAC4 IC50", "setting": "HDAC4", "result": "poor activity"}, {"measurement": "IC50", "setting": "HDAC4", "result": "> 10000", "unit": "nM"}, {"measurement": "inhibition at 10 µM", "setting": "NCI/ADR-RES", "result": 100, "unit": "%"}, {"measurement": "inhibition at 10 µM", "setting": "UACC-62", "result": 100, "unit": "%"}, {"measurement": "inhibition at 10 µM", "setting": "T-47D", "result": 100, "unit": "%"}, {"measurement": "inhibition at 10 µM", "setting": "SN12C", "result": 100, "unit": "%"}, {"measurement": "inhibition at 10 µM", "setting": "SNB-19", "result": 100, "unit": "%"}, {"measurement": "inhibition at 10 µM", "setting": "RPMI-8226", "result": 88.7, "unit": "%"}, {"measurement": "inhibition at 10 µM", "setting": "NCI-H226", "result": 93.3, "unit": "%"}, {"measurement": "inhibition at 10 µM", "setting": "OVCAR-5", "result": 100, "unit": "%"}, {"measurement": "inhibition at 10 µM", "setting": "OVCAR-4", "result": 67.1, "unit": "%"}, {"measurement": "inhibition at 10 µM", "setting": "HS 578T", "result": 97.8, "unit": "%"}, {"measurement": "inhibition at 10 µM", "setting": "LOX IMVI", "result": 100, "unit": "%"}, {"measurement": "inhibition at 10 µM", "setting": "HCT-116", "result": 96, "unit": "%"}, {"measurement": "inhibition at 10 µM", "setting": "HCT-15", "result": 100, "unit": "%"}, {"measurement": "inhibition at 10 µM", "setting": "HL60", "result": 100, "unit": "%"}, {"measurement": "inhibition at 10 µM", "setting": "A498", "result": 100, "unit": "%"}, {"measurement": "HDAC8 IC50", "setting": "HDAC8", "result": "poor activity"}, {"measurement": "IC50", "setting": "HDAC8", "result": 510, "unit": "nM"}, {"measurement": "inhibition at 10 µM", "setting": "COLO 205", "result": 100, "unit": "%"}, {"measurement": "inhibition at 10 µM", "setting": "NCI-H322M", "result": 89, "unit": "%"}, {"measurement": "inhibition at 10 µM", "setting": "K-562", "result": 90.2, "unit": "%"}, {"measurement": "inhibition at 10 µM", "setting": "MCF7", "result": 92.1, "unit": "%"}, {"measurement": "inhibition at 10 µM", "setting": "MDA-MB-435", "result": 95.8, "unit": "%"}, {"measurement": "inhibition at 10 µM", "setting": "SK-MEL-2", "result": 100, "unit": "%"}, {"measurement": "inhibition at 10 µM", "setting": "MALME-3M", "result": 100, "unit": "%"}, {"measurement": "inhibition at 10 µM", "setting": "SR", "result": 84.3, "unit": "%"}]}
